# Reference: US20090275634A1 (priority 2006, published 2009)
# Columns and labels:
# [1] = tested on: peritoneal macrophages; type: cell-based, C57BL6 mice
# [2] = tested on: peritoneal macrophages; type: cell-based, C57BL6 mice; remark: listed apart in the source
# [3] = tested on: peritoneal macrophages derived from MyD88 KO mice; type: cell-based, MyD88 KO mice (C57BL6 background)
# [4] = tested on: peritoneal macrophages derived from MyD88 KO mice; type: cell-based, MyD88 KO mice (C57BL6 background); remark: listed apart in the source
# [5] = tested on: peritoneal macrophages from TLR9 KO mice; type: cell-based
substance,measurement,setting,value
5′-CTGCCACGTTCTCCTGCA*C*C*-3′ [nuclease resistant EN101],number of MAC-1 positive cells,[1],minor effect
same,survival/proliferation of total and activated peritoneal macrophages,[1]; 72 hr,inhibited
same,MIP-2 secretion from PMs,[2],inhibited
same,levels of MIP-2 in the supernatants of PM,[2],strongly elevated
same,secretion of IL-6 from activated PMs,[2],did not induce secretion
same,secretion of TNF-α from activated PMs,[2],did not induce secretion
same,number of MAC-1 positive cells,[3],reduced significantly
same,effect on MIP-2 levels in the supernatants of PMs,[4],almost totally inhibited
same,number of total and MAC-1 positive cells,[5],reduced significantly
